Assay results from publication PMC12715984, “Co‐cultivation and Medium Optimization: A Strategy for Discovering Fungal‐derived Protease Inhibitors” (Chemistry & Biodiversity, 2025).
In brackets after ≈: the same amount, converted by molar mass. Like-named read-outs stand apart in the source and are kept apart here.

Legend:
[1] = test system: T. cruzi Tulahuen lacZ strain; assay: Anti-T. cruzi activity, intracellular amastigotes in HFF-1 cells, beta-galactosidase/CPRG readout; conditions: Trypanosoma cruzi, HFF-1, 120 h
Description: The evaluation utilized the genetically modified T. cruzi Tulahuen lacZ strain, engineered to express the lacZ gene encoding β‐galactosidase. Viable intracellular parasites express this enzyme, which hydrolyzes the substrate chlorophenol red‐β‐D‐galactopyranoside (CPRG) to release chlorophenol red, a chromogenic product quantified spectrophotometrically at 570 nm. The absorbance intensity directly correlates with the number of metabolically active parasites present during the assay.
Axenic cultures of T. cruzi epimastigotes (strain MHOM/CH/00/Tulahuen C2, lacZ) were grown in LIT medium containing 10% fetal calf serum (FCS) at 28°C. During the exponential growth phase, parasites were collected via centrifugation (250 × g, 10 min), resuspended in Grace's insect medium supplemented with 10% FCS, and differentiated into metacyclic trypomastigotes over 5–14 days. Differentiated parasites were harvested and used to infect Human Foreskin Fibroblasts (HFF‐1), cultured in Dulbecco's Modified Eagle Medium (DMEM) with 10% FCS under 5% CO2 at 37°C.
For infection assays, HFF‐1 cells were plated in 96‐well plates (5 × 10⁴ cells/well) in 80 µL phenol red‐free DMEM and incubated overnight. Metacyclic trypomastigotes (5 × 10⁵ parasites/well in 20 µL) were added, followed by 24‐hour incubation. After this period, trypomastigotes differentiate into intracellular amastigotes. Non‐infective parasites were removed by replacing the medium with 100 µL fresh DMEM. Test compounds, at varying concentrations, were then applied to determine IC50 values against intracellular amastigotes, with benznidazole as the positive control. After 5 days of incubation (37°C, 5% CO2), 50 µL of 1 mM CPRG and 0.1% IGEPAL CA‐630 (a non‐ionic detergent) were added. β‐Galactosidase activity, reflecting parasite viability, induced a colorimetric shift from yellow to red, measured at 570 nm. Growth inhibition percentages were calculated relative to untreated controls. Benznidazole was used as the positive control and DMSO as the negative control.

[2] = test system: Candida albicans (ATCC 64548); assay: Antifungal broth microdilution (CLSI M27A3), MIC; type: cell-based; conditions: for MIC: Candida albicans, ATCC64548, read-out: minimum inhibitory concentration (MIC)
Description: The antifungal activity of compounds 1–5, 7–11 was evaluated using the broth microdilution method in 96‐well plates, following the Clinical Laboratory Standard Institute (CLSI) guidelines M27A3 [35, 36], with minor modifications. The assay was performed against Candida auris (CDC B11903), Candida parapsilosis (ATCC 22019), and Candida albicans (ATCC 64548), and based on the determination of the minimum inhibitory concentration (MIC).
Each compound was initially dissolved in DMSO at a stock concentration 100 times higher than the highest concentration tested. Working solutions were subsequently prepared in RPMI 1640 culture medium (pH 7.0), supplemented with L‐glutamine, devoid of bicarbonate, and containing phenol red as a pH indicator, to yield a 2 × concentration. Serial two‐fold dilutions were made to obtain final concentrations ranging from 3.125 to 200.00 µg/mL. Fluconazole was used as a reference antifungal control.
Aliquots of 100 µL of each 2 × test solution were dispensed into the wells of the microdilution plates. Fungal suspensions were prepared in autoclaved distilled water and adjusted to a final concentration of 5.0 × 10^3 conidia or blastoconidia/mL. After inoculation, plates were incubated at 37°C. Fungal growth was visually assessed after 24 and 48 h. […] All assays were performed in duplicate.

papain [3] = biological target: T1, papain (Carica papaya, UniProt P00784); assay: Papain inhibition, fluorometric Z-Phe-Arg-MCA assay; type: biochemical; conditions: for inhibition at 100 µM: read-out: % inhibition (100 µM)
T1 construct: purchased
T1 sequence (P00784 134-345): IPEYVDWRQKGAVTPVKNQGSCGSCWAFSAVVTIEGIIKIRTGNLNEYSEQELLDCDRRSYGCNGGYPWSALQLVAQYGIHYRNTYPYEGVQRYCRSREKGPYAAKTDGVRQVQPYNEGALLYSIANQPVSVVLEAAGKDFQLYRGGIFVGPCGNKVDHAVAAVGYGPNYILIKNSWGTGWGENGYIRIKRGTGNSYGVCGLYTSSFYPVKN
Description: Compounds 1, 2, 4, and 7–11 were tested against papain inhibitory activity. Papain served as the model cysteine protease in the protease inhibition assay. Enzyme activity was assessed via real‐time fluorometric monitoring of 7‐amino‐4‐methylcoumarin (MCA) release during substrate cleavage. Hydrolysis of the fluorogenic substrate Z‐Phe‐Arg‐MCA (ZFR‐MCA) was tracked in black 96‐well plates using a spectrofluorometer (λex/λem = 380/460 nm) (SpectraMax M3, Molecular Devices).
Each reaction well contained 5 µL papain (80 nM), 2 µL dithiothreitol (DTT, 500 mM), and 158 µL sodium acetate buffer (100 mM, pH 5.5, 5 mM EDTA). After a 5‐minute pre‐incubation at 27°C, 5 µL of test compound (dissolved in DMSO) or DMSO (negative control) was added. In the initial screening, all compounds were tested at a fixed concentration of 100 µM to evaluate their inhibitory potential. Following a second 5‐minute incubation at 27°C, 30 µL ZFR‐MCA (0.6 mM) was added, and fluorescence was recorded every 300 s using a SpectraMax M3 microplate reader (Molecular Devices). This concentration guided subsequent serial dilutions to determine the IC50 (half‐maximal inhibitory concentration).
For this, a serial dilution series was prepared from the active compounds, and the assay was conducted as previously described. Final assay conditions (200 µL/well) yielded effective compound concentrations of 100 µM to 1.56 µM for IC50 determination. Papain's molar concentration was validated via titration with the irreversible inhibitor E‐64 (positive control) from 1.0 µM to 31.25 nM. All experiments included triplicate measurements across two independent trials (total n = 6).

Cytotoxicity assay, MTS = type: cell-based; conditions: human, HFF-1, 120-hour incubation, maximum tested 64 µM
Description: Cytotoxicity assays: HFF‐1 fibroblasts (provided by Rio de Janeiro Cell Bank (BCRJ)) were seeded at a density of 2 × 10^3 cells per well in 100 µL of DMEM and incubated overnight at 37°C in a 5% CO2 atmosphere. Subsequently, test compounds were added in serial dilutions, followed by a 120‐hour incubation period under the same conditions. Each plate included negative controls and doxorubicin as a positive control. After incubation, 15 µL of MTS reagent (CellTiter96) was added to each well, and plates were incubated for an additional 4 h. Absorbance was measured at 490 nm using a microplate reader. The percentage of growth inhibition was calculated relative to the absorbance of the negative control wells.

papain [4] = biological target: T1, papain; parameters: method as in earlier work; conditions: at 200 µM; cited from earlier work
plant-parasitic nematode = test system: plant-parasitic nematode; parameters: method as in PMID 27990770; conditions: cited from earlier work
bacteria = test system: bacteria; parameters: method as in PMID 21497643; conditions: cited from earlier work
Cryphonectria parasitica = test system: Cryphonectria parasitica; parameters: method as in PMID 11052720; conditions: against Cryphonectria parasitica; cited from earlier work
papain [5] = biological target: T1, papain; parameters: method as in PMID 32189177; conditions: at a concentration of 50 µM, cited from earlier work

Compound: O=C(Cn1ccnc1[N+](=O)[O-])NCc1ccccc1 [Benznidazole, reference compound]
- IC50 [1]: 2.24 ± 0.9 µM

Compound: CCCCc1ccc(C(=O)[O][Mg][O]C(=O)c2ccc(CCCC)cn2)nc1 [Compound 2, magnesium complex of fusaric acid]
- IC50 [1]: 12.2 ± 0.4 µM
- MIC [2]: 50 µg/mL
- IC50 (papain [3]; papain): 17.5 µM
- inhibition at 100 µM (papain [3]): 94 ± 7.9%
- CC50 at 120 h (Cytotoxicity assay, MTS): > 64 µM

Compound: CSC12CC3=CC=CC(OC(C)=O)C3N1C(=O)C1(SC)CC3=CC=CC(OC(C)=O)C3N1C2=O (centres unmarked) [Compound 4, haematocin]
- IC50 [1]: 13.3 ± 1 µM
- MIC [2]: 100 µg/mL (≈ 199 µM)
- IC50 (papain [3]): 47.7 µM
- inhibition at 100 µM (papain [3]): 76.6%
- CC50 at 120 h (Cytotoxicity assay, MTS): > 64 µM

Compound: CCCCc1ccc(C(=O)O)nc1 [Compound 5, fusaric acid]
- IC50 [1]: 20.9 ± 0.3 µM
- papain inhibition (papain [4]): 58%
- CC50 at 120 h (Cytotoxicity assay, MTS): > 64 µM

Compound: C[C@@H](O)CCc1ccc(C(=O)O)nc1 [Compound 7, (R)‐fusarinolic acid]
- IC50 [1]: 60.07 ± 0.6 µM
- plant-parasitic nematode activity (plant-parasitic nematode): no significant activity
- antibacterial activity (bacteria): no significant activity
- CC50 at 120 h (Cytotoxicity assay, MTS; HFF-1 fibroblasts): > 64 µM

Compound: CC(C)=CCCC(C)(O)C1CCC(C)(O)C1C (centres unmarked) [Compound 8, cyclonerodiol]
- IC50 [1]: 22.7 ± 1.1 µM
- inhibition at 100 µM (papain [3]; papain, compound at 100 µM): 89%
- IC50 (papain [3]; papain, read-out: IC50): 25.9 µM
- antifungal activity (Cryphonectria parasitica): weak antifungal activity
- CC50 at 120 h (Cytotoxicity assay, MTS; HFF-1 fibroblasts): > 64 µM

Compound: CC(C)C[C@H](NC(=O)[C@H]1O[C@@H]1C(=O)O)C(=O)NCCCCN=C(N)N [E‐64, reference compound]
- IC50 (papain [3]; papain, positive control, read-out: IC50): 0.0072 µM

Compound: CC(C)C[C@@H]1NC(=O)[C@@H]2CCCN2C1=O [cyclo(L‐Leu‐L‐Pro) diketopiperazine]
- papain inhibition (papain [5]; 50 µM): 3%

Compound: CC(C)[C@@H]1NC(=O)[C@@H]2CCCN2C1=O [cyclo(L‐Val‐L‐Pro)]
- papain inhibition (papain [5]): 10%

Compound: Iron complex of fusaric acid [Compound 1]
- minimum inhibitory concentration (MIC) ([2]; C. albicans, tested 3.125 to 200.00 µg/mL): 100 µg/mL
- % inhibition (100 µM) (papain [3]; papain, compound at 100 µM, 100 µM): 88.6%
- IC50 (papain [3]; papain, read-out: IC50): 14.1 µM
